From patent US9944721B2, “Polysialic acid and use for treatment of neurodegenerative and neuroinflammatory diseases” (RHEINISCHE FRIEDRICH-WILHELMS UNIVERSITÄT BONN, priority 2013, dated 2018)

Experiments:
Type in all cases: cell-based
[1] = test system: human induced pluripotent stem cell derived microglia (iPSdM-1); assay: Half maximum effective concentration for reduction of LPS-induced TNF-α gene transcript; settings: LPS 1 μg/ml, 24 hours
Protocol: (§1) Human induced pluripotent stem cell derived microglia (iPSdM) were obtained from iPS cells. iPSdM-1 line was used in this study generated from the iLB-C-35m-r1 clone (Bonn). iPSdM-1 (here named microglia or microglial cells) were culture in N2-medium consisting of DMEM/F12 culture medium (Gibco) supplemented with 1% N2 (Invitrogen), 0.48 mM L-glutamine (Gibco) and 100 μg/ml penicillin/streptomycin (Gibco). Cells were cultured with high density and split 1:5. After splitting, cells recovered and attached again to the new dishes.
Cells were treated for 24 hours with 1 μg/ml lipopolysaccharides (LPS) and 5 nM, 15 nM, 50 nM, 150 nM, 500 nM, 1.5 μM, 5 μM, 15 μM, 50 μM or 150 μM of PSA-20. For gene transcript analysis of TNF-α, RNA was collected from cells via the RNeasy kit system (Quiagen) Reverse transcription of the RNA was performed using Super Script II reverse transcriptase (Life Technologies) and hexamer random primers (Roche). Quantitative RT-PCR with specific oligonucleotides was performed with SYBR Green PCR Master Mix (Qiagen) using the ABI 5700 Sequence Detection System (PerkinElmer). The qRT-PCR was running for 40 cycles with a Tm of 60° C. using the same primer as for the PCR. The […] method with GAPDH as internal standard was performed for qRT-PCR quantification.

[2] = test system: LPS-activated human microglia; assay: LPS-induced TNF-alpha gene transcription in human microglia (qRT-PCR); settings: LPS 1 μg/ml, 24 hours
Protocol: To analyse whether polysialic acid might interfere with a pro-inflammatory phenotype of human microglia, cultured human microglia were activated with lipopolysaccharides (LPS) and the effect of the distinct sialic acid forms including fractions of oligosialic and polysialic acid on the gene transcription of the pro-inflammatory cytokine tumor necrosis factor-alpha induced by the bacterial toxin LPS was determined. A human microglial line derived from induced pluripotent stem cells as described in WO 2010/125110 was used to study the effect of sialic acid forms with different chain length. Human microglial cells were cultured on 5 μg/ml poly-L-lysin (PLL, Sigma)-coated dishes in N2-medium containing DMEM/F12 culture medium (Gibco) supplemented with 1% N2 (Invitrogen), 0.48 mM L-glutamine (Gibco) and optionally 100 μg/ml penicillin/streptomycin (Gibco). Cells were cultured with high density and splitted 1:2 when required. The human induced pluripotent stem cell derived microglia line was treated with lipopolysaccharides (LPS, 1 μg/ml, Invivogen) and sialic acid forms with different chain length for 24 hours. Gene transcripts for tumor necrosis factor-α (TNF-alpha) were determined by quantitative RT-PCR and normalized to GAPDH. In detail, RNA isolation was performed using RNeasy Mini Kit (Qiagen) and transcription with the SuperScript First-Strand Synthesis System (Invitrogen). Quantitative RT-PCR with specific oligonucleotides (GAPDH: […] (SEQ ID NO: 1) and […] (SEQ ID NO: 2); TNFα: […] (SEQ ID NO: 3) and […] (SEQ ID NO: 4)) was performed using SYBR green PCR Master Mix with the Mastercycler epgradients S (Eppendorf). Results were normalized to GAPDH. Quantification using the delta-CT method was carried out.

[3] = test system: co-culture of human iPSdM1 microglia and iPS cell-derived neurons with amyloid-β1-42; assay: Microglia-neuron co-culture with fibrillary amyloid-β1-42, 48 hours (neurite length); settings: 48 hours co-culture with microglia and 1 μM fibrillary amyloid-β1-42; without PSA-20 0.64+/−0.03; FIG. 4G
Protocol: as §1
Human induced pluripotent stem (iPS) cells (Foreskin-1, WiCell) were used for generation of primitive neural stem cell (pNSC) and their differentiation into neurons according to a modified protocol, which was used to obtain primitive neural precursors from human embryonic stem cells. Briefly, iPS cells were cultured on feeder cells to form small colonies. […]
Cells were fixed for 15 minutes with 4% paraformaldehyde (PFA), blocked and permeabilized for 60 minutes with a solution that contained bovine serum albumin (10% BSA) and normal goat serum (5% nGS) and 0.1% TritonX-100. […] Ten images were randomly collected from each experimental setup by confocal laser scanning microscopy (Fluoview 1000, Olympus) and total lengths of neuronal branches from β-tubulin-III stained neurites was determined done by the NIH ImageJ/NeuronJ software.

EC50 ([1]; read-out: EC50 in human microglia (reduction of LPS-induced TNF-α gene transcript by 50%)): 90 nM
Substance: poly-(α(2→8)Neu5Ac)n [PSA-20]
concentration reducing the LPS-induced gene transcription of TNF-α ([1]; FIG. 10B): ≥ 0.05 µM
LPS-induced gene transcription of TNF-alpha ([2]; 0.15 μM, 0.5 μM and 1.5 μM, FIG. 3): reduced
Anti-inflammatory effect on TNF-alpha of LPS-activated human microglia ([2]; summary of Example 4): Yes
relative neurite length [3]: 0.82+/−0.03
